pEC50: −log10 of the molar value. A value given as a limit tells only on which side of the number the result lay.

The target in the assay is T1, human mGluR3 (hmGluR3) (Homo sapiens, UniProt Q14832).
T1 construct: expressed in transfected cells; host or cells: HEK-293 cells, transient co-transfection by electroporation
T1 sequence (Q14832 23-879): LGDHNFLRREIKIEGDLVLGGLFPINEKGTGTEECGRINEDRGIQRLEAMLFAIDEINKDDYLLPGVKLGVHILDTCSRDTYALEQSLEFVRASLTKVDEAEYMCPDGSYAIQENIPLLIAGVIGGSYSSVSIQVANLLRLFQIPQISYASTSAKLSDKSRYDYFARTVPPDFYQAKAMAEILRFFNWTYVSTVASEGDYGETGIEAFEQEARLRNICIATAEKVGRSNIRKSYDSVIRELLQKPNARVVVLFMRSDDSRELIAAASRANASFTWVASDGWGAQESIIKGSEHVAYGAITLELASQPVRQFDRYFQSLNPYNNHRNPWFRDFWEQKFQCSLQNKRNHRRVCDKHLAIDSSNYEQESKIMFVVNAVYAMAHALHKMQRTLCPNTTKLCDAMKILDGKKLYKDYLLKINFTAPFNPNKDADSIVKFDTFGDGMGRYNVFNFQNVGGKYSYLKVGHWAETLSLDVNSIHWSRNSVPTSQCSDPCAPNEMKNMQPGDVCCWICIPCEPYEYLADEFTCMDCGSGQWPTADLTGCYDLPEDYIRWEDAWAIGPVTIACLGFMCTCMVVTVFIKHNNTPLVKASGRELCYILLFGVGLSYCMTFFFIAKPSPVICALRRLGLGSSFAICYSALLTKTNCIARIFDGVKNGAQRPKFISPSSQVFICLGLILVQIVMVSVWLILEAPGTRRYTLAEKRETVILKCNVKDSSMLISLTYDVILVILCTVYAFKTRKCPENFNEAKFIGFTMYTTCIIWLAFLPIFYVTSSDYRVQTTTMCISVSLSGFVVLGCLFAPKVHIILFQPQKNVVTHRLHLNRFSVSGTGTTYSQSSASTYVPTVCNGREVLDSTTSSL
The experiment in a line: Human mGluR3 positive allosteric modulator evaluation using Ca++ functional assay. The assay is classed as cell-based. Conditions: hmGluR3 transiently over-expressed in HEK-293 cells; stimulated by EC50 glutamate concentration; intracellular Ca2+ (Fluo4AM, FLIPR Tetra). The procedure:
Compounds of the present invention were tested successively for their agonist and positive allosteric modulator activities on human mGluR3 (hmGluR3) transiently over-expressed in HEK-293 cells. Compounds exert agonist activity if they are able to activate hmGluR3 by themselves, i.e., in absence of the endogenous agonist glutamate; and they exert positive allosteric modulator activity if they increase the action of the endogenous agonist glutamate.
HEK-293 cells were maintained in Modified Eagle's Medium supplemented with 10% Foetal Calf Serum, 1% Penicillin/Streptomycin and 1% non-essential amino acids at 37° C./5% CO2.
Cells were co-transfected by electroporation with four DNA plasmids encoding hmGluR3, a chimeric G protein allowing redirection of the activation signal toward intracellular calcium pathway, and two glutamate transporters so as to decrease extracellular glutamate levels and avoid receptor desensitization (Brabet I et al., Neuropharmacology 37(8), 1043-51, 1998). After transfection, cells were seeded in 75 cm^2 culture flasks, and cultured for 24 h.
Receptor activity was detected by changes in intracellular calcium measured using the fluorescent Ca^2+ sensitive dye, Fluo4AM (Molecular Probes).
The day of the assay, medium was aspirated and replaced during 3 hrs by freshly prepared buffer B (HBSS 1×, Hepes 20 mM, MgSO4-7H2O 1 mM, Na2CO3 3.3 mM, CaCl2-2H2O 1.3 mM, 0.5% BSA, Probenecid 2.5 mM). Then, cells were loaded at 37° C./5% CO2 for 1.5 hrs with buffer B containing 1 μM Fluo4AM, 0.1 mg/mL Pluronic Acid, 7 μg/mL Glutamate Pyruvate Transaminase and 2 mM sodium pyruvate. Afterwards cells were washed with buffer B. Cells were then detached from the 75 cm^2 culture flasks with Accutase® (5 min incubation at 37° C.), centrifuged (5 min at 840 rpm), resuspended in buffer B and finally seeded at a density of 30,000 cells/well in black-walled clear-bottom 384-well plates. Addition of compounds on cells and intracellular Ca^2+ measurements (excitation 485 nm, emission 525 nm) were performed by the fluorescence microplate reader FLIPR Tetra (Molecular Devices).
Agonist and positive allosteric modulator activities of compounds were consecutively evaluated on the same cells plate. Agonist activity was first tested during 10 min with the addition of compound alone on the cells. Then, the cells were stimulated by an EC50 glutamate concentration and fluorescence was recorded for additional 3 min. EC50 glutamate concentration is the concentration giving 50% of the maximal glutamate response. Agonist and/or positive allosteric modulator activity(ies) were evaluated in comparison to basal signal or signal evoked by EC50 glutamate concentration alone, respectively.
For potency determination, a dose-response test was performed using 20 concentrations of each compound of the invention. Dose-response curves were fitted using the sigmoïdal dose-response (variable slope) analysis in XLfit Scientific Curve Fitting for Excel (IDBS). EC50 of agonist/EC50 of positive allosteric modulator activity(ies) were calculated. Dose-response experiments were all performed in duplicate, two times independently.
What is called pEC50 is the EC50 on a negative log10 scale, so that one unit is a factor of ten. Read a high pEC50 as a low EC50. For the compound `Cc1ccc(-c2ccc3c(c2)-n2cccc2C(=O)N(C)C32CC2)c(C)n1` [Example 56, 5-Methyl-9-(2,6-dimethylpyridin-3-yl)-spiro[benzo[f]pyrrolo[1,2-a][1,4]diazepine-6,1′-cyclopropan]-4(5H)-one], the negative logarithm of the EC50 (pEC50) is > 7.00.

For the compound `Cc1ccc(-c2ccc3c(c2)-n2cc(Br)cc2C(=O)N(C)C32CC2)cn1` [Example 18, 2-Bromo-5-methyl-9-(6-methyl-pyridin-3-yl)-spiro[benzo[f]pyrrolo[1,2-a][1,4]diazepine-6,1′-cyclopropan]-4(5H)-one], the pEC50 was > 7.00.

`CN(C)c1ccc2c(c1)-n1cc(-c3ccccc3)cc1C(=O)N(C)C21CC1` [Example 115, 9-Dimethylamino-5-methyl-2-phenyl-spiro[benzo[f]pyrrolo[1,2-a][1,4]diazepine-6,1′-cyclopropan]-4(5H)-one]: the negative-log EC50 (pEC50) was < 6.00.

Take `CN1C(=O)c2c(Cl)ccn2-c2cc(Br)ccc2C12CC2` [Example 6, 9-Bromo-3-chloro-5-methyl-spiro[benzo[f]pyrrolo[1,2-a][1,4]diazepine-6,1′-cyclopropan]-4(5H)-one]: the pEC50 was < 6.00.

The compound `CN1C(=O)c2cccn2-c2cc(Br)ccc2C12CC2` [Example 1, 9-Bromo-5-methyl-spiro[benzo[f]pyrrolo[1,2-a][1,4]diazepine-6,1′-cyclopropan]-4(5H)-one] showed a pEC50 of 6.00 to 7.00.

With `CN1C(=O)c2cc(Cl)cn2-c2cc(Br)ccc2C12CC2` [Example 5, 9-Bromo-2-chloro-5-methyl-spiro[benzo[f]pyrrolo[1,2-a][1,4]diazepine-6,1′-cyclopropan]-4(5H)-one], the pEC50 is < 6.00.

`CN1C(=O)c2cc(-c3ccccc3)cn2-c2cc(-c3cncnc3)ccc2C12CC2` [Example 104, 5-Methyl-2-phenyl-9-(pyrimidin-5-yl)-spiro[benzo[f]pyrrolo[1,2-a][1,4]diazepine-6,1′-cyclopropan]-4(5H)-one] had a negative logarithm of the EC50 (pEC50) of 6.00 to 7.00.

On to `Cc1ncccc1-c1ccc2c(c1)-n1nc(-c3ccccc3)cc1C(=O)N(C)C21CC1` [Example 125, 9-(2-Methyl-pyridin-3-yl)-5-methyl-2-phenyl-spiro[benzo[f]pyrazolo[1,5-a][1,4]diazepine-6,1′-cyclopropan]-4(5H)-one], for which the pEC50 was > 7.00.

`Cc1ncccc1-c1ccc2c(c1)-n1cc(-c3ccc(Cl)cc3)cc1C(=O)N(C)C21CC1` [Example 149]: the negative-log EC50 (pEC50) was 6.00 to 7.00.

Compound `Cc1ncccc1-c1ccc2c(c1)-n1cc(Br)cc1C(=O)N(C)C21CC1` [Example 17, 2-Bromo-5-methyl-9-(2-methyl-pyridin-3-yl)-spiro[benzo[f]pyrrolo[1,2-a][1,4]diazepine-6,1′-cyclopropan]-4(5H)-one] gave a negative-log EC50 (pEC50) of 6.00 to 7.00.

With `CCCc1ncccc1-c1ccc2c(c1)-n1cccc1C(=O)N(C)C21CC1` [Example 61, 5-Methyl-9-(2-propylpyridin-3-yl)-spiro[benzo[f]pyrrolo[1,2-a][1,4]diazepine-6,1′-cyclopropan]-4(5H)-one], the negative-log EC50 (pEC50) is > 7.00.

`Cc1cnccc1-c1ccc2c(c1)-n1cccc1C(=O)N(C)C21CC1` [Example 38, 5-Methyl-9-(3-methylpyridin-4-yl)-spiro[benzo[f]pyrrolo[1,2-a][1,4]diazepine-6,1′-cyclopropan]-4(5H)-one] had a negative-log EC50 (pEC50) of 6.00 to 7.00.

In turn, `Cc1ncccc1-c1ccc2c(c1)-n1cc(-c3ccc(F)cc3)cc1C(=O)N(C)C21CC1` [Example 150] had a negative logarithm of the EC50 (pEC50) of 6.00 to 7.00.

With `Cc1ncccc1-c1ccc2c(c1)-n1cc(-c3cccc(F)c3)cc1C(=O)N(C)C21CC1` [Example 152], the negative-log EC50 (pEC50) is > 7.00.

With `Cc1ncccc1-c1cccc2c1-n1cccc1C(=O)N(C)C21CC1` [Example 92, 10-(2-Methyl-pyridin-3-yl)-5-methyl-spiro[benzo[f]pyrrolo[1,2-a][1,4]diazepine-6,1′-cyclopropan]-4(5H)-one], the negative logarithm of the EC50 (pEC50) is < 6.00.

For `COCc1cc2n(c1)-c1cc(-c3ccc(C)nc3)ccc1C1(CC1)N(C)C2=O` [Example 205], the negative logarithm of the EC50 (pEC50) was > 7.00.

The compound `CCc1ncccc1-c1ccc2c(c1)-n1cc(Br)cc1C(=O)N(C)C21CC1` [Example 19, 2-Bromo-5-methyl-9-(2-ethyl-pyridin-3-yl)-spiro[benzo[f]pyrrolo[1,2-a][1,4]diazepine-6,1′-cyclopropan]-4(5H)-one] had a negative logarithm of the EC50 (pEC50) of 6.00 to 7.00.

Turning to `Cc1cc(-c2ccc3c(c2)-n2cc(-c4ccccc4)cc2C(=O)N(C)C32CC2)ccn1` [Example 105, 5-Methyl-2-phenyl-9-(2-methyl-pyridin-4-yl)-spiro[benzo[f]pyrrolo[1,2-a][1,4]diazepine-6,1′-cyclopropan]-4(5H)-one], the pEC50 was 6.00 to 7.00.

The compound `Cc1cncc(-c2ccc3c(c2)-n2cc(-c4ccccc4)cc2C(=O)N(C)C32CC2)c1` [Example 98, 5-Methyl-2-phenyl-9-(5-methyl-pyridin-3-yl)-spiro[benzo[f]pyrrolo[1,2-a][1,4]diazepine-6,1′-cyclopropan]-4(5H)-one] showed a pEC50 of 6.00 to 7.00.

Regarding `CN1C(=O)c2cc(-c3ccccc3)cn2-c2cc(-c3cccnc3)ccc2C12CC2` [Example 93, 5-Methyl-2-phenyl-9-pyridin-3-yl-spiro[benzo[f]pyrrolo[1,2-a][1,4]diazepine-6,1′-cyclopropan]-4(5H)-one], the negative logarithm of the EC50 (pEC50) was > 7.00.

With `CN1C(=O)c2cccn2-c2cc(-c3ccc(N4CCCCC4)nc3)ccc2C12CC2` [Example 43, 5-Methyl-9-(3,4,5,6-tetrahydro-2H-[1,2′]bipyridinyl-5′-yl)-spiro[benzo[f]pyrrolo[1,2-a][1,4]diazepine-6,1′-cyclopropan]-4(5H)-one], the pEC50 was < 6.00.

With `CCc1ncccc1-c1ccc2c(c1)-n1cc(-c3ccnn3C)cc1C(=O)N(C)C21CC1` [Example 163], the pEC50 was > 7.00.

`Cc1ccc(-c2ccc3c(c2)-n2cc(-c4ccnn4C)cc2C(=O)N(C)C32CC2)cn1` [Example 159]: the negative-log EC50 (pEC50) is > 7.00.

In the case of `Cc1ncccc1-c1ccc2c(c1)-n1cc(-c3ncc[nH]3)cc1C(=O)N(C)C21CC1` [Example 184], the negative-log EC50 (pEC50) was > 7.00.

With `CCc1ncccc1-c1ccc2c(c1)-n1cccc1C(=O)N(C)C21CC1` [Example 24, 5-Methyl-9-(2-ethylpyridin-3-yl)-spiro[benzo[f]pyrrolo[1,2-a][1,4]diazepine-6,1′-cyclopropan]-4(5H)-one], the negative logarithm of the EC50 (pEC50) is 6.00 to 7.00.

In the case of `CNc1ccc(-c2ccc3c(c2)-n2cc(-c4ccccc4)cc2C(=O)N(C)C32CC2)cn1` [Example 118, 5-Methyl-2-phenyl-9-(6-methylamino-pyridin-3-yl)-spiro[benzo[f]pyrrolo[1,2-a][1,4]diazepine-6,1′-cyclopropan]-4(5H)-one], the pEC50 was > 7.00.

Regarding `CN1C(=O)c2cc(-c3ccccc3)nn2-c2cc(-c3ccc(Cl)cc3)ccc2C12CC2` [Example 135, 9-(4-Chloro-phenyl)-5-methyl-2-phenyl-spiro[benzo[f]pyrazolo[1,5-a][1,4]diazepine-6,1′-cyclopropan]-4(5H)-one], the pEC50 was < 6.00.

In turn, `Cc1ncccc1-c1ccc2c(c1)-n1cc(C(=O)C3CCCC3)cc1C(=O)N(C)C21CC1` [Example 194] had a negative-log EC50 (pEC50) of 6.00 to 7.00.

On to `CN1C(=O)c2cc(-c3ccccc3)cn2-c2cc(-c3ccc(N)nc3)ccc2C12CC2` [Example 96, 5-Methyl-2-phenyl-9-(6-amino-pyridin-3-yl)-spiro[benzo[f]pyrrolo[1,2-a][1,4]diazepine-6,1′-cyclopropan]-4(5H)-one], for which the pEC50 is 6.00 to 7.00.

Take `Cc1ncccc1-c1ccc2c(c1)-n1cc(C(F)F)cc1C(=O)N(C)C21CC1` [Example 201]: the negative logarithm of the EC50 (pEC50) was > 7.00.

In the case of `Cc1ccnc(C)c1-c1ccc2c(c1)-n1cccc1C(=O)N(C)C21CC1` [Example 65, 5-Methyl-9-(2,4-dimethylpyridin-3-yl)-spiro[benzo[f]pyrrolo[1,2-a][1,4]diazepine-6,1′-cyclopropan]-4(5H)-one], the negative-log EC50 (pEC50) was < 6.00.

The compound `Cc1ccncc1-c1ccc2c(c1)-n1cc(-c3ccccc3)cc1C(=O)N(C)C21CC1` [Example 101, 5-Methyl-2-phenyl-9-(4-methyl-pyridin-3-yl)-spiro[benzo[f]pyrrolo[1,2-a][1,4]diazepine-6,1′-cyclopropan]-4(5H)-one] gave a negative logarithm of the EC50 (pEC50) of 6.00 to 7.00.

The record behind these values is US11008323B2, “Substituted tricyclic 1,4-benzodiazepinone derivatives as allosteric modulators of group II metabotropic glutamate receptors” (Domain Therapeutics, priority 2015, dated 2021).
